These results are taken from PMC11013662, “New Thiosemicarbazide Derivatives with Multidirectional Biological Action” (Molecules, 2024).

Molecules are shown by their SMILES. Converted amounts (≈) assume the structure as drawn. A value given as a limit tells only on which side of the number the result lay.

In series [1] the test system is Micrococcus luteus ATCC 10240. The series is described as follows: Broth microdilution MIC / MBC. Conditions: ATCC10240, M. luteus ATCC 10240. It is filed as cell-based. The protocol:
(§1) The microdilution method was used to determine the MIC values of newly synthesized compounds. The antimicrobial activity of the thiosemicarbazides series was tested on ten reference bacterial strains purchased from the American Type Culture Collection (ATCC). Seven Gram-positive reference strains (S. aureus ATCC 29213, S. aureus ATCC 43300, S. aureus ATCC 6538, S. aureus ATCC 25923, S. epidermidis ATCC 12228, M. luteus ATCC 10240, and B. cereus ATCC 10876) and three Gram-negative reference bacteria (K. pneumoniae ATCC 13883, E. coli ATCC 25922, S. typhimurium ATCC 14028) were used. These bacterial strains are representatives of microorganisms that can cause the most common opportunistic infections among humans. The bacteria were grown on Mueller–Hinton agar (MHA) plates before examination. To perform the assay, all bacteria were placed in sterile saline (0.85% NaCl) to obtain a suspension of the optical density of the 0.5 McFarland standard (1.50 × 10^8 colony-forming units (CFUs)/mL). A solution of the tested compounds was prepared in dimethyl sulfoxide (DMSO) at a concentration of 50 mg/mL as a stock solution.
(§2) A 96-well microtiter plate and microbroth two-fold dilution method was used to determine the minimum inhibitory concentration (MIC) according to the EUCAST (European Committee on Antimicrobial Susceptibility Testing) reference recommendation. The solutions were then diluted with Mueller–Hinton broth (MHB, Biomaxima, Lublin, Poland) medium to obtain a solution with a basic concentration of 1000 µg/mL. Then, using the two-fold dilution method with MHB, the tested compounds were introduced into the wells of the microplate to provide a final concentration in the range of 0.49 to 1000 µg/mL. Then, 2 μL of bacterial inoculum with a density of 0.5 McFarland standard was added into each well. Each well was filled with a total volume of 100 μL. Then, microtiter plates were incubated for 18 ± 2 h at 35 °C. After incubation, the growth of bacteria was monitored by a Biotek ELx800 (Biokom, Janki, Poland) spectrophotometer at 600 nm (OD600). The MIC assays were performed in triplicate.
(§3) A negative control with MHB and without tested compounds was used. Clinically used anti-bacterial agents, cefuroxime and vancomycin, were included as positive controls for the purpose of comparison in a concentration range from 0.007 to 15.625 µg/mL.
(§4) The in vitro antimicrobial activity of the tested compounds was determined by the MIC, which was defined as the lowest concentration of the compound tested at which no visible growth of the test bacteria was observed. The MBC (the minimum bactericidal concentration) is defined as the lowest concentration of antimicrobial agent resulting in reduction in the viability of the initial bacterial inoculum by ≥99.9% on the plate. Generally, an MBC/MIC ratio less than 4 is considered bactericidal for an antimicrobial, and an MBC/MIC > 8 is indicative of bacteriostatic activity. For the MBC test, the Mueller–Hinton agar (MHA, Biomaxima, Poland) plate assay was used. MBC was determined after the broth dilution period of an MIC test has been completed. After the MIC detection, 5 µL aliquots from each well were plated on an MHA plate and grown at 35 °C overnight. The MBC values were determined by observing the first clear area on the agar plate that has no observable bacterial growth.

The test system of series [2] is Staphylococcus epidermidis ATCC 12228. The experiment in a line: Broth microdilution MIC / MBC. To be noted: ATCC12228, S. epidermidis ATCC 12228. Format: cell-based. The protocol: as §1, §2, §3, §4
(In general: Broth dilution looks for growth in wells or tubes with falling amounts of substance.)

For series [3], the system named is Staphylococcus aureus ATCC 29213. The series is described as follows: Broth microdilution MIC / MBC. It is filed as cell-based. To be noted: ATCC29213, S. aureus ATCC 29213. The procedure:
as §1, §2, §3, §4

Series [4] concerns Staphylococcus aureus ATCC 43300. The series is described as follows: Broth microdilution MIC / MBC. It is filed as cell-based. To be noted: S. aureus ATCC 43300 (MRSA); for MBC: read-out: MBC; for MIC: read-out: MIC. The protocol:
as §1, §2, §3, §4

Series [5] deals with Staphylococcus aureus ATCC 25923. The experiment in a line: Broth microdilution MIC / MBC. Format: cell-based. To be noted: for MBC: ATCC25923, S. aureus ATCC 25923, read-out: MBC; for MIC: ATCC25923, S. aureus ATCC 25923, read-out: MIC. The protocol: as §1, §2, §3, §4
For series [6], the system named is Bacillus cereus ATCC 10876. The series is described as follows: Broth microdilution MIC / MBC. Format: cell-based. Conditions: ATCC10876, B. cereus ATCC 10876. The procedure: as §1, §2, §3, §4
The subject of series [7] is Staphylococcus aureus ATCC 6538. The experiment in a line: Broth microdilution MIC / MBC. Format: cell-based. Conditions: ATCC6538, S. aureus ATCC 6538. The protocol:
as §1, §2, §3, §4

Series [8] has as its system Staphylococcus spp. strains. The series is described as follows: Broth microdilution MIC / MBC, staphylococci. It is filed as cell-based. The procedure: (§5) The microdilution method was used to determine the MIC values of newly synthesized compounds. The antimicrobial activity of the thiosemicarbazides series was tested on ten reference bacterial strains purchased from the American Type Culture Collection (ATCC). Seven Gram-positive reference strains (S. aureus ATCC 29213, S. aureus ATCC 43300, S. aureus ATCC 6538, S. aureus ATCC 25923, S. epidermidis ATCC 12228, M. luteus ATCC 10240, and B. cereus ATCC 10876) and three Gram-negative reference bacteria (K. pneumoniae ATCC 13883, E. coli ATCC 25922, S. typhimurium ATCC 14028) were used. […]
(§6) A 96-well microtiter plate and microbroth two-fold dilution method was used to determine the minimum inhibitory concentration (MIC) according to the EUCAST (European Committee on Antimicrobial Susceptibility Testing) reference recommendation. […] After incubation, the growth of bacteria was monitored by a Biotek ELx800 (Biokom, Janki, Poland) spectrophotometer at 600 nm (OD600). […]
(§7) The in vitro antimicrobial activity of the tested compounds was determined by the MIC, which was defined as the lowest concentration of the compound tested at which no visible growth of the test bacteria was observed. […] MBC was determined after the broth dilution period of an MIC test has been completed. […] The MBC values were determined by observing the first clear area on the agar plate that has no observable bacterial growth.

A further series has as its system Rhabditis sp. The experiment in a line: Anthelmintic activity assay on nematode culture. It is filed as cell-based. Conditions: 24 h exposure. The protocol:
All compounds in the anthelmintic activity study were prepared in the form of a homogeneous suspension. The anthelmintic activity was tested according to the procedure developed by Bogucka-Kock and Kołodziej. The tested compounds were added to the culture of Rhabditis sp. at experimentally determined concentrations. […] LC50 values (lethal concentration) were determined for two active substances. It was defined as the amount of the substance causing the death of 50% of nematodes.

The subject of series [9] is S. aureus reference strains. The series is described as follows: Broth microdilution MIC / MBC, summary over S. aureus strains. It is filed as cell-based, Staphylococcus aureus. The protocol: as §5, §6, §7
The test system of a further series is Gram-positive bacteria. The experiment in a line: Broth microdilution MIC / MBC, summary over Gram-positive strains. It is filed as cell-based. The procedure:
as §5, §6, §7

As usually defined, the MBC is the smallest concentration meeting the test's criterion for killing. For orientation: MIC means the lowest concentration found to suppress growth. As a reminder, the LC50 is the concentration lethal to half of the exposed cells or organisms. Turning to `O=C(NNC(=S)Nc1cccc(Cl)c1)c1cccc(C(F)(F)F)c1` [Compound 3a, 4-(3-Chlorophenyl)-1-(3-trifluoromethylbenzoyl)thiosemicarbazide], the MBC in series [1] came to 15.6 µg/mL (≈ 41.8 µM); in series [2], 15.6 µg/mL (≈ 41.8 µM); in [3] it was 1000 µg/mL (≈ 2680 µM); in series [4], 1000 µg/mL (≈ 2680 µM); in [5], 1000 µg/mL (≈ 2680 µM); in [6], 15.6 µg/mL (≈ 41.8 µM). For the same compound, the MBC turned out to be 1000 µg/mL (≈ 2680 µM) in series [7] and 1000 µg/mL (≈ 2680 µM) in series [9] (Staphylococcus aureus, all tested S. aureus reference strains). Also, the MIC in series [1] amounted to 1.95 µg/mL (≈ 5.22 µM); in series [2], 1.95 µg/mL (≈ 5.22 µM); in [3] it was 1.95 µg/mL (≈ 5.22 µM); in [4], 3.9 µg/mL (≈ 10.4 µM); in [5], 1.95 µg/mL (≈ 5.22 µM); in series [6], 1.95 µg/mL (≈ 5.22 µM). In addition, the MIC in series [7] and in series [8] (all Staphylococcus spp. strains except MRSA ATCC 43300) was 1.95 µg/mL (≈ 5.22 µM) in each case. Also, the MBC/MIC ratio in [8] (against staphylococci, bacteriostatic) was > 4. For the same compound, the LC50 in the series on Rhabditis sp. was determined as 14800 µg/mL (≈ 39500 µM).
The term melting point denotes the temperature of the solid-liquid transition. Consider `O=C(NNC(=S)Nc1cccc(F)c1)c1cccc(C(F)(F)F)c1` [Compound 3e, 1-(3-Trifluoromethylbenzoyl)-4-(3-fluorophenyl)thiosemicarbazide], for which the melting point turned out to be 174.4 °C. Besides, in the series on Gram-positive bacteria, the MBC was > 1000 µg/mL and the MIC range lay in the range of 7.8 to 31.25 µg/mL. In [1], the MBC was > 1000 µg/mL and it took 15.6 µg/mL (≈ 43.7 µM) to inhibit growth (MIC). In addition, in [2], the MBC is > 1000 µg/mL and the MIC came to 31.2 µg/mL (≈ 87.5 µM). In series [3], the MBC was > 1000 µg/mL and inhibition of growth (MIC) required 15.6 µg/mL (≈ 43.7 µM). Moreover, in [4], the MBC was > 1000 µg/mL and the MIC was found to be 31.2 µg/mL (≈ 87.5 µM). Moreover, in series [5], the MBC is > 1000 µg/mL and the MIC stood at 31.2 µg/mL (≈ 87.5 µM). In series [6], the MBC was > 1000 µg/mL and the MIC came to 7.81 µg/mL (≈ 21.9 µM). In addition, in series [7], the MBC was > 1000 µg/mL and the lowest concentration to inhibit growth (MIC) was 15.6 µg/mL (≈ 43.7 µM). Also, the MIC range in [9] (S. aureus ATCC 43300 MRSA and all MSSA reference strains) lay in the range of 15.63 to 31.25 µg/mL.
`COc1cccc(NC(=S)NNC(=O)c2cccc(C(F)(F)F)c2)c1` [Compound 3b, 1-(3-Trifluoromethylbenzoyl)-4-(3-methoxyphenyl)thiosemicarbazide] gave a melting point of 181.3 °C. Further, in [1], inhibition of growth (MIC) required 500 µg/mL (≈ 1350 µM). Moreover, the MIC in series [2] is > 1000 µg/mL. Further, the MIC in [3] is > 1000 µg/mL. Moreover, the minimum inhibitory concentration (MIC) in [4] was > 1000 µg/mL. In addition, the MIC in series [5] worked out at 62.5 µg/mL (≈ 169 µM). Besides, the MIC in [6] was > 1000 µg/mL. For the same compound, the MIC in [7] was > 1000 µg/mL.
With `Cc1cccc(NC(=S)NNC(=O)c2cccc(C(F)(F)F)c2)c1` [Compound 3d, 1-(3-Trifluoromethylbenzoyl)-4-(3-methylphenyl)thiosemicarbazide], the melting point turned out to be 230.7 °C. The compound also showed an MIC in series [1] of 1000 µg/mL (≈ 2830 µM). This compound gave an MIC in series [2] of 1000 µg/mL (≈ 2830 µM). Moreover, the MIC in series [3] was > 1000 µg/mL. Moreover, in [4], the MIC was > 1000 µg/mL. In series [5], the MIC was 1000 µg/mL (≈ 2830 µM). In addition, in series [6], the MIC was > 1000 µg/mL. In addition, the MIC in [7] was > 1000 µg/mL.
On to `CCCCNC(=S)NNC(=O)c1cccc(C(F)(F)F)c1` [Compound 3c, 4-Butyl-1-(3-trifluoromethylbenzoyl)thiosemicarbazide], for which the melting point turned out to be 161.6 °C. It took 1000 µg/mL (≈ 3130 µM) to inhibit growth in [1] (MIC). The lowest concentration to inhibit growth in series [2] (MIC) was 1000 µg/mL (≈ 3130 µM). In addition, the MIC in [3] is > 1000 µg/mL. In series [4], the MIC was > 1000 µg/mL. In addition, the MIC in series [5] is 250 µg/mL (≈ 783 µM). Also, the MIC in series [6] is > 1000 µg/mL. Moreover, the MIC in series [7] was > 1000 µg/mL.
For the compound `O=C(NNC(=S)Nc1ccccc1)c1cccc(C(F)(F)F)c1` [Compound 3f, 1-(3-Trifluoromethylbenzoyl)-4-(phenyl)thiosemicarbazide], the melting point stood at 176.4 °C. The MIC in [1] worked out at 1000 µg/mL (≈ 2950 µM). The compound also displayed an MIC in series [2] of 1000 µg/mL (≈ 2950 µM). For the same compound, the MIC in series [3] is > 1000 µg/mL. Besides, the MIC in series [4] was > 1000 µg/mL. Further, the minimal inhibitory concentration (MIC) in series [5] is 62.5 µg/mL (≈ 184 µM). In [6], the MIC is > 1000 µg/mL. Further, in series [7], the MIC is > 1000 µg/mL.
As for `FC(F)(F)c1cccc(-c2n[nH]c(=S)n2-c2cccc(Cl)c2)c1` [Compound 4, 4-(3-Chlorophenyl)-5-(3-trifluoromethylphenyl)-2,4-dihydro-3H-1,2,4-triazole-3-thione], the MIC in series [1] was 1000 µg/mL (≈ 2810 µM); in series [2], 500 µg/mL (≈ 1410 µM); in [3], > 1000 µg/mL; in series [4], > 1000 µg/mL; in [5], 1000 µg/mL (≈ 2810 µM); in series [6] it was > 1000 µg/mL. In addition, in [7], the MIC is > 1000 µg/mL. This compound also had an LC50 in the series on Rhabditis sp. of 370 µg/mL (≈ 1040 µM).
